{"source": "patent US6630490B2", "about": "“Methods for treatment of disease-induced peripheral neuropathy and related conditions” (NeoTherapeutics, Inc., priority 2000, dated 2003)", "key": {"[1]": {"system": "control and diabetic rats, sciatic nerve", "assay": "Sensory nerve conduction velocity (SNCV) in control and diabetic rats", "type": "in vivo, rat", "method": "(§1) Induction of diabetes: Female, adult, Sprague-Dawley rats (250-275 g) were fasted overnight prior to the intraperitoneal injection of a freshly made solution of streptozotocin in 0.9% saline to deliver a dose of 50 mg/kg body weight. Food was restored and animals left for 3 days before determination of glucose levels in a blood sample obtained by tail prick. Animals with blood glucose levels >15 mmol/l were considered diabetic and used in the study. Treatment with the AIT-082 began on the day that hyperglycemia was confirmed. […] If they presented as diabetic then they were added to the study, if not they were omitted.\nNerve Conduction Velocity (NCV): Rats were anesthetized with halothane (4% in O2 for induction, 2-3% for maintenance) and the sciatic nerve exposed via an incision in the flank followed by separation of underlying musculature by blunt dissection. A thermistor probe was placed adjacent to the nerve and the wound closed with a skin clamp and a second, rectal, probe was positioned. Nerve and rectal temperature was maintained at 37° C. by a heating lamp and thermal pad connected to a temperature regulator and the thermistor probes. […] The distance between the two sites of stimulation was measured using surface calipers and NCV calculated as […]. NCV measurements were made in triplicate and the median used to represent the NCV. The thermistor probes were removed, the skin incision closed with wound clips and coated with Betadine and the animal withdrawn from halothane and monitored until it recovers consciousness. Rats were then returned to their cages with free access to food and water."}, "[2]": {"system": "control and diabetic rats", "assay": "Thermal response latency in control and diabetic rats", "type": "in vivo, rat", "conditions": "for thermal hyperalgesia (week 4) and hypoalgesia (week 8): diabetic rats", "method": "as §1\nThermal response latency: Rats were placed in an observation chamber on the surface (floor temperature 30° C.) of a modified Hargreaves Apparatus (UARD, San Diego Calif.) and allowed to acclimate for 5 minutes. For measurement of thermal response latency, a heat source (delivering 4.5 amps to give a paw withdrawal latency of approximately 10 seconds in control rats) was maneuvered underneath the hind paw. The heat source was turned on manually and a stop clock activated until it shut off automatically when the paw was moved (24 sec cut off time). The procedure was repeated 4 times on the same paw at 5 minute intervals and the median of values 2-4 used to represent the thermal response latency."}, "[3]": {"system": "control and diabetic rats", "assay": "Formalin test in control and diabetic rats", "type": "in vivo, rat", "method": "as §1\nFormalin test: Rats were restrained manually and formalin (50 μl of 0.2% solution) injected sub-dermally into the hindpaw dorsum. Rats were then placed in an observation chamber and flinching behaviors counted in 1 minute blocks every 5 minutes for 1 hour."}, "[4]": {"system": "rats with isolated mDCN-T13 field", "assay": "Collateral sprouting of nociceptive nerves into adjacent denervated skin", "type": "in vivo, rat", "description": "(§2) “Isolation” of sensory fields: This procedure, the initial step in the study of collateral sprouting and was done as described in Diamond et al. (1992). Its purpose was to isolate the cutaneous innervation territory, or field, of a selected nerve within a vast surround of denervated back skin. The nerve used was the medial branch of the left dorsal cutaneous nerve (DCN), at segmental level T13 (mDCN-T13). The isolation of its field was achieved by surgically eliminating on the left side the 4 DCNs immediately rostral and caudal to DCN-T13 (respectively T9-T12 and L1-L4), the lateral branch of DCN-T13, and the 4 lateral cutaneous nerves supplying the flank skin adjacent to the DCN-T13 territory.\n(§3) Mapping of sensory fields: As described in Nixon et al. (1984) and Doucette and Diamond (1987), the borders of the isolated mechano-nociceptive and heat-nociceptive fields, subserved respectively by the Aδ and C fibers mDCN-T13, were determined by systematically applying across the skin forceps pinches (for mechano-nociception) and brief applications of a 60° C. heat probe (for heat-nociception); the presence of nociceptive endings is indicated during these procedures when the stimuli elicit the “CTM reflex” response, a contraction of the underlying cutaneus trunci muscle, which causes a characteristic and easily recognized skin twitch (Theriault and Diamond, 1988). The low-threshold (“touch”) fields were measured electrophysiologically as described by Jackson and Diamond (1984). The DCN-T13 was placed across bipolar platinum electrodes that fed into a preamplifier and thence to an oscilloscope and audio amplifier. Brushing innervated skin with a fine bristle generates impulses in the large myelinated Aβ axons, producing audible responses that disappear abruptly as the bristle crosses into denervated territory. The areas of the cutaneous territories of the three sensory modalities studied (“pinch”, “heat” and “touch”) were measured using the MCID image analysis system (Imaging Research, Inc., St. Catharines, Ontario, Canada). […]"}, "[5]": {"system": "rats with isolated mDCN-T13 field receiving anti-NGF", "assay": "Sprouting blocked by anti-NGF treatment, rescue by AIT-082", "type": "in vivo, rat", "description": "as §2\nMapping of sensory fields: As described in Nixon et al. (1984) and Doucette and Diamond (1987), the borders of the isolated mechano-nociceptive and heat-nociceptive fields, subserved respectively by the Aδ and C fibers mDCN-T13, were determined by systematically applying across the skin forceps pinches (for mechano-nociception) and brief applications of a 60° C. heat probe (for heat-nociception); the presence of nociceptive endings is indicated during these procedures when the stimuli elicit the “CTM reflex” response, a contraction of the underlying cutaneus trunci muscle, which causes a characteristic and easily recognized skin twitch (Theriault and Diamond, 1988). […]"}, "[6]": {"system": "unoperated rats, mDCN-T13 heat, pinch and touch fields", "assay": "Nociceptive nerve sprouting in normally innervated skin (mDCN-T13 field mapping)", "type": "in vivo, rat", "description": "as §2, §3"}, "unoperated animals [7]": {"system": "unoperated animals", "assay": "Detection of hyperalgesia", "type": "in vivo, rat", "method": "Detection of hyperalgesia: Nociceptive responses were studied in lightly restrained animals as described in […] et al. (1999), using the latency of foot withdrawal from a 49° C. footbath, the temperature of the footbath at which withdrawal was initiated, and the heat thresholds for evoking the “CTM” reflex from back skin (see above). Hyperalgesia is defined here as a lowering of the threshold of a nociceptive stimulus required to produce a reflex response, and/or a reduction in the latency of that response. Administration of AIT-082: AIT-082 was obtained from NeoTherapeutics Inc., Irvine, Calif., USA. A 50 mg/ml solution in sterile 0.9% NaCl was made up freshly every three days. The standard administration protocol was a daily i.p. injection of 50 mg/kg AIT-082."}, "[8]": {"system": "unoperated rats, mDCN-T13 heat, pinch and touch fields", "conditions": "systemically injected NGF; Diamond et al., 1992; Pertens et al., 1999; cited from earlier work"}, "unoperated animals [9]": {"system": "unoperated animals", "conditions": "rat, in vivo; cited from earlier work"}, "[10]": {"conditions": "unoperated rats, 50 mg/kg daily for 20 days, versus saline"}}}
{"compound": "O=C(CCn1cnc2c(=O)[nH]cnc21)Nc1ccc(C(=O)O)cc1", "note": "[AIT-082, N-4-carboxyphenyl-3-(6-oxohydropurin-9-yl) propanamide]", "values": [{"measurement": "SNCV", "setting": "[1]; control rats", "result": "no effect"}, {"measurement": "SNCV deficit", "setting": "[1]; diabetic rats, week 4", "result": "no effect"}, {"measurement": "SNCV", "setting": "[1]; diabetic rats, week 8", "result": "dose-dependent improvement"}, {"measurement": "thermal response latency", "setting": "[2]; control rats", "result": "without effect"}, {"measurement": "thermal hyperalgesia (week 4) and hypoalgesia (week 8)", "setting": "[2]", "result": "dose-dependently prevented both hyperalgesia and hypoalgesia"}, {"measurement": "thermal hyperalgesia (week 4) and hypoalgesia (week 8)", "setting": "[2]; high dose 100 mg/kg", "result": "completely prevented both hyperalgesia at week 4 and hypoalgesia at week 8"}, {"measurement": "formalin-evoked flinching", "setting": "[3]; control and diabetic rats", "result": "dose-dependently reduced"}, {"measurement": "formalin-evoked hyperalgesia by phase", "setting": "[3]; diabetic rats", "result": "suppression of hyperalgesia was notable in phases 1, Q, and 2a"}, {"measurement": "amount by which field expansions in the AIT-082 sprouting group exceeded controls", "setting": "[4]; after 20 days of treatment, comparison from raw data of FIGS. 1 and 2", "result": "approximately equal to the expansion in field areas induced in unoperated animals"}, {"measurement": "expansion of nociceptive fields into adjacent denervated skin relative to control group", "setting": "[4]; daily AIT-082 after field isolation, mapping every 3 or 4 days", "result": "increased expansion of the nociceptive fields"}, {"measurement": "time at which increased field expansion became apparent", "setting": "[4]; daily AIT-082 versus saline", "result": "about 13 days post-isolation"}, {"measurement": "sprouting under supra-threshold (\"high\") anti-NGF treatment", "setting": "[5]; daily AIT-082 plus about 5-fold anti-NGF dose, fields after 22 days", "result": "sprouting continued to be absent"}, {"measurement": "sprouting under threshold (\"low\") anti-NGF treatment", "setting": "[5]; daily AIT-082 plus daily anti-NGF, pinch and heat fields after 22 days", "result": "totally rescued the sprouting"}, {"measurement": "limited dose-response study for inducing nociceptive sprouting", "setting": "[6]; daily i.p. injection of 50 mg/kg, not illustrated", "result": "well above threshold for inducing nociceptive sprouting, but below saturating levels"}, {"measurement": "nociceptive fields, pinch and heat (area of innervation)", "setting": "[6]; [10]", "result": "expanded significantly"}, {"measurement": "touch fields (NGF-insensitive Aβ fibers)", "setting": "[6]; [10]", "result": "unaffected"}, {"measurement": "hyperalgesia, threshold temperature for foot withdrawal from a hot probe", "setting": "unoperated animals [7]; FIG. 4(a)", "result": "does not cause hyperalgesia"}, {"measurement": "hyperalgesia, threshold temperature for evoking the CTM reflex in dorsal skin", "setting": "unoperated animals [7]; FIG. 4(b)", "result": "does not cause hyperalgesia"}, {"measurement": "hyperalgesia, latency of foot withdrawal from a 49° C. hot bath", "setting": "unoperated animals [7]; FIG. 4(c)", "result": "does not cause hyperalgesia"}, {"measurement": "hyperalgesia (a number of recognized tests)", "setting": "unoperated animals [7]; standard AIT-082 administration, at any time during or following treatment", "result": "failed to provide any evidence for the occurrence of this phenomenon"}]}
{"compound": "NGF: nerve growth factor, exogenous, systemically injected", "values": [{"measurement": "sprouting in normal skin", "setting": "[8]", "result": "induces sprouting in normal skin"}, {"measurement": "hyperalgesia", "setting": "unoperated animals [9]", "result": "causes hyperalgesia"}]}
